Data reported in patent US9393244B2, “Increasing parkin activity by administering a deubiquitinating enzyme inhibitor” (Georgetown University, priority 2013, dated 2016).
Peptide text beside a SMILES is read from it. * marks the point of attachment. Cbz = O=C(OCc1ccccc1)*

Experiments:
[1] = system: USP10; test: Western blot of STEN (soluble) extracts of M17 cells, endogenous USP10 level; format: cell-based, human; details: M17 cells transfected with 3 μg lentiviral plasmids for 48 hr; FIG. 27A 2nd blot
Method: (§1) To further determine whether USP13 targets parkin, M17 cells were transfected with 3 μg lentiviral plasmids containing parkin, USP13 or different shRNA USP13 clones (FIG. 27A) for 48 hr. The expression level of the shRNAs was determined by routine stereology of the GFP and VS-tagged lentivirus to ensure equal expression of lentiviral plasmids. USP13 gene expression level is verified by PCR. Co-expression of USP13 and parkin led to an increase (134%) in parkin level compared to parkin alone (FIG. 27A, 1st blot, N=4), but shRNA expression reduced USP13 and parkin levels relative to actin (FIG. 27A). […] To ascertain that manipulation of USP13 expression affects protein clearance, the activity of the 20S proteasome activity was measured using chymotrypsin-like assays. Proteasome activity was inhibited after 2 hr treatment with 20 μM proteasome inhibitor MG132 compared to control (LacZ) or parkin alone (FIG. 27B, N=4).

[2] = molecular target: T1, 20S proteasome (Homo sapiens, UniProt P28074); test: Chymotrypsin-like proteasome activity assay in M17 cells; format: cell-based; details: for effects of USP13 overexpression on proteasome activity: shRNA with USP13 overexpression
T1 construct: endogenous in cells; host or cells: human M17 neuroblastoma cells
Method: as §1

[3] = system: parkin; test: Western blot of STEN (soluble) extracts of M17 cells, parkin level; format: cell-based, human; details: M17 cells transfected with 3 μg lentiviral plasmids for 48 hr; FIG. 27A 3rd blot
Method: as §1

[4] = system: USP13; test: Western blot of STEN (soluble) extracts of M17 cells, USP13 level; format: cell-based, human; details: M17 cells transfected with 3 μg lentiviral plasmids for 48 hr; FIG. 27A 1st blot
Method: as §1

Molecule | effect on USP10 level [1] | effects of USP13 overexpression on proteasome activity [2] | also measured
F04: USP13 shRNA clone, 5′AACTTAGTCATCTGTGTGT 3′ (SEQ ID NO: 2) | without any effects | – | –
E07: USP13 shRNA clone, 5′ TTTCCAGTGAAGTACACAG 3′ (SEQ ID NO: 1) | without any effects | – | –
CC(C)C[C@@H](C=O)NC(=O)[C@H](CC(C)C)NC(=O)[C@H](CC(C)C)NC(=O)OCc1ccccc1 [MG132, reference compound] (Cbz-Leu-Leu-Leu-aldehyde) | – | – | proteasome activity ([2]; 2 hr treatment with 20 μM, compared to control (LacZ) or parkin alone, N=4): inhibited; effect on shRNA-mediated increase/reversal of proteasome activity ([2]; MG132 added to shRNA (F03, F02) conditions): blocked these effects; proteasome activity ([2]; cells co-expressing USP13 with parkin): further inhibited
F02: USP13 shRNA clone, 5′ TCTTGTAGACCCTGTCGCC 3′ (SEQ ID NO: 4) | without any effects | completely reversed | –
E08: USP13 shRNA clone, 5′ TATTCGTTGCTCGTAGTGC 3′(SEQ ID NO: 5) | did not produce any significant effects | – | effect on parkin level [3]: did not produce any significant effects; effect on USP13 level [4]: did not produce any significant effects
F03: USP13 shRNA clone, 5′ TTTCTCGCAGGTCGCATCT 3′ (SEQ ID NO: 3) | without any effects | completely reversed | increase of proteasome activity ([2]; blocking USP13 with shRNA, compared to control): 14%
